Assay results as given in patent US20250255959A1, “A SYSTEM FOR DRUG-INDUCIBLE EXPRESSION OF A POLYNUCLEOTIDE” (Miltenyi Biotec B.V. & Co. KG, priority 2022, published 2025).

Tests used:
[1] = test system: anti-CD20 CAR expression in primary T cells; assay: Induction of anti-CD20 CAR expression in transduced primary T cells, flow cytometry; assay type: cell-based, human; details: 0-250 nM 4-OHT, 40 h
Method: Lentiviral particles encoding for the different drug-inducible cassettes were manufactured as described in example 1.2. Drug-inducible T cells were generated as described in example 1.3. 1E4 LNGFR positive drug-inducible T cells were seeded in 100 μL TexMACS medium (Miltenyi Biotec) supplemented with IL-7 (Miltenyi Biotec) and IL-15 (Miltenyi Biotec) in a 96-round bottom well plate. Anti-CD20 CAR expression was induced by the addition of different concentrations of 4-OHT (0-250 nM, Sigma-Aldrich) in 100 μL μL TexMACS medium (Miltenyi Biotec) supplemented with IL-7 (Miltenyi Biotec) and IL-15 (Miltenyi Biotec) to each well. Untransduced T cells constitute the negative control. T cells that 10 constitutively express an anti-CD20 CAR (“direct CAR”) represent the positive control. Cells were incubated at 37° C. and 5% CO2. T cells were analyzed 40h post induction for anti-CD20 CAR expression by flow cytometry using anti-CD20 CAR detection reagent-PE. […]
Staining was performed for 10 min at 4° C. followed by two successive washing steps with 200 L PEB (300 g, 5 min). […] Frequency of anti-CD20 CAR+inducible T cells (left graph) and mean fluorescence intensity (MFI) of anti-CD20 CAR expression (right graph) was determined and normalized to the expression of the transduction marker LNGFR. […]

[2] = cited from earlier work

4-hydroxytamoxifen [4-OHT]
anti-CD20 CAR surface expression (MFI) versus drug dose [1]: steadily increased with the drug dose
induction ratios of anti-CD20 CAR expression versus drug dose [1]: higher drug doses resulting in greater induction ratios

CC/C(=C(\c1ccccc1)c1ccc(OCCN(C)C)cc1)c1ccccc1 [tamoxifen, 2-(4-((1Z)-1,2-diphenyl-1-butenyl)phenoxy)-N,N-dimethylethanamine]
steady-state plasma levels ([2]; after 80 days of daily dosing): 71 to 183 ng/mL
average peak plasma concentration ([2]; single oral dose of 20 mg): 40 ng/mL
